According to US20240002326A1, “COMPOUNDS AND USE THEREOF IN METHODS OF TREATMENT” (The University of Queensland, priority 2016, published 2024):
pIC50: −log10 of the molar value.

Target: SOX18-MEF2C interaction (Homo sapiens (Human), UniProt P35713)
Test: ALPHAScreen SOX18-MEF2C protein-protein interaction
Assay type: binding
Settings: read-out: SOX18-MEF2C interaction disruption IC50
Description: Proteins were genetically encoded with enhanced GFP (GFP), mCherry and cMyc (myc) tags, and cloned into cell free expression Gateway destination vectors: N-terminal GFP tagged (pCellFree_G03), N-terminal Cherry-cMyc (pCellFree_G07) and C-terminal Cherry-cMyc tagged (pCellFree_G08) (Gagoski et al., 2015). Human RBPJ (BC020780) and MEF2C (BC026341) Open Reading Frames (ORFs) were sourced from the Human ORFeome collection, version 1.1 and 5.1, and the Human Orfeome collaboration OCAA collection (Open Biosystems), as previously described (Sierecki et al., 2013) and cloned at the ARVEC facility, UQ Diamantina Institute. […]
ALPHAScreen was performed as previously described (Sierecki et al., 2014, Sierecki et al., 2013). […] Percentage of interaction was calculated as: (I_cpd/I_DMSO)×100 from 3 independent experiments.
ALPHAScreen was performed as previously described (Sierecki et al., 2014, Sierecki et al., 2013), using the cMyc detection kit and Proxiplate-384 Plus plates (PerkinElmer). […] The ALPHAScreen signal was measured on an Envision Plate Reader (PerkinElmer), using manufacturer's recommended settings (λexc=680/30 nm for 0.18 s, λem=570/100 nm after 37 ms). […]
I is the highest signal level (top of the hook effect curve) and Ineg is the lowest (background) signal level. […] Percentage of interaction was calculated as: […]

Chain of SOX18-MEF2C interaction (P35713 whole entry): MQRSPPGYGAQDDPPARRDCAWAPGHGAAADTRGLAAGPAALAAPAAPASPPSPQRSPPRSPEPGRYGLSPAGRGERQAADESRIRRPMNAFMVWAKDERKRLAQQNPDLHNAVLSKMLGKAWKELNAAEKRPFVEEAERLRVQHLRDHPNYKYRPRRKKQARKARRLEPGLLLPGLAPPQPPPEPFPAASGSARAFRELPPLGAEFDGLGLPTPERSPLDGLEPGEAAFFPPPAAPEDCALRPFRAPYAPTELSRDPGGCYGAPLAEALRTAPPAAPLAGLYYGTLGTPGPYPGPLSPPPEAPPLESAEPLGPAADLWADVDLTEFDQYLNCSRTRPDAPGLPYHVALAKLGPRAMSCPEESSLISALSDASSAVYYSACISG

SMILES: O=C(O)c1ccccc1Nc1cccc(C(F)(F)F)c1 [Flufenamic acid, reference compound]
- pIC50: 4.54
